pIC50: −log10 of the molar value. In brackets after ≈: the same amount, converted by molar mass.
Key:
[1] = system: Staphylococcus aureus; test: Antibacterial activity against Staphylococcus aureus 1146; assay type: functional
[2] = system: Staphylococcus aureus; test: Antibacterial activity against fluoroquinolone-resistant Staphylococcus aureus harboring DNA gyrase D83N mutant; assay type: functional
[3] = biological target: DNA gyrase (Staphylococcus aureus, UniProt P0A0K8+P20831); test: Inhibition of Staphylococcus aureus DNA gyrase; assay type: protein-complex assay
[4] = system: Staphylococcus aureus; test: Antibacterial activity against fluoroquinolone-resistant Staphylococcus aureus harboring DNA gyrase M121K mutant; assay type: functional
[5] = Inhibition of Staphylococcus aureus DNA topoisomerase 4
[6] = system: Staphylococcus aureus; test: Antibacterial activity against fluoroquinolone-resistant Staphylococcus aureus 1095; assay type: functional

Structure (SMILES) | MIC [1] | MIC [2] | pIC50 [3] | MIC [4] | pIC50 [5] | MIC [6]
COc1ccc2nccc([C@@H](O)CC[C@@H]3CCN(C4CC(c5cc(F)cc(F)c5OC)C4)C[C@@H]3C(=O)O)c2c1 (stereo partly specified) | 0.5 µg/mL (≈ 0.925 µM) | 32 µg/mL (≈ 59.2 µM) | 5.20 | 64 µg/mL (≈ 118 µM) | 4.22 | 2 µg/mL (≈ 3.7 µM)
COc1ccc2nccc([C@@H](O)CC[C@@H]3CCN(C4CC(c5ccno5)C4)C[C@@H]3C(=O)O)c2c1 (stereo partly specified) | 2 µg/mL (≈ 4.3 µM) | – | 5.50 | – | 4.22 | 8 µg/mL (≈ 17.2 µM)
COc1ccc2nccc([C@@H](O)CC[C@@H]3CCN(C4CC(c5c(F)cc(F)cc5F)C4)C[C@@H]3C(=O)O)c2c1 (stereo partly specified) | – | > 64 µg/mL | 5.20 | > 64 µg/mL | 3.92 | 0.5 µg/mL (≈ 0.946 µM)
COc1ccc2nccc([C@@H](O)CC[C@@H]3CCN(C4CC(c5cccc(SC)c5)C4)C[C@@H]3C(=O)O)c2c1 (stereo partly specified) | 2 µg/mL (≈ 3.84 µM) | 64 µg/mL (≈ 123 µM) | 5.33 | – | 3.82 | 8 µg/mL (≈ 15.4 µM)
COc1ccc2nccc([C@@H](O)CC[C@@H]3CCN(C4CC(c5c(OC)ccc(F)c5F)C4)C[C@@H]3C(=O)O)c2c1 (stereo partly specified) | 0.25 µg/mL (≈ 0.462 µM) | 64 µg/mL (≈ 118 µM) | 5.81 | > 64 µg/mL | 4.35 | 2 µg/mL (≈ 3.7 µM)
COc1ccc2nccc([C@@H](O)CC[C@@H]3CCN(C4CC(c5cccc(F)c5C)C4)C[C@@H]3C(=O)O)c2c1 (stereo partly specified) | – | > 64 µg/mL | 4.60 | > 64 µg/mL | < 3.92 | 0.5 µg/mL (≈ 0.987 µM)
COc1ccc2nccc([C@@H](O)CC[C@@H]3CCN(C4CC(c5cccc(F)c5F)C4)C[C@@H]3C(=O)O)c2c1 (stereo partly specified) | ≤ 0.0625 µg/mL | 32 µg/mL (≈ 62.7 µM) | 5.81 | 32 µg/mL (≈ 62.7 µM) | 4.52 | < 0.0625 µg/mL
COc1ccc2nccc([C@@H](O)CC[C@@H]3CCN(C4CC(c5cc(F)ccc5OC)C4)C[C@@H]3C(=O)O)c2c1 (stereo partly specified) | 0.5 µg/mL (≈ 0.957 µM) | – | 4.90 | – | 4.43 | 4 µg/mL (≈ 7.65 µM)
COc1ccc2nccc([C@@H](O)CC[C@@H]3CCN(C4CC(c5cccc(F)c5)C4)C[C@@H]3C(=O)O)c2c1 (stereo partly specified) | ≤ 0.0625 µg/mL | 32 µg/mL (≈ 65 µM) | 5.81 | 32 µg/mL (≈ 65 µM) | 4.42 | 0.125 µg/mL (≈ 0.254 µM)
COc1ccc2nccc([C@@H](O)CC[C@@H]3CCN(C4CC(c5c(F)ccc(Cl)c5F)C4)C[C@@H]3C(=O)O)c2c1 (stereo partly specified) | – | > 64 µg/mL | 5.50 | > 64 µg/mL | 4.60 | 0.25 µg/mL (≈ 0.459 µM)
COc1ccc2nccc([C@@H](O)CC[C@@H]3CCN(C4CC(c5ccccc5C(F)(F)F)C4)C[C@@H]3C(=O)O)c2c1 (stereo partly specified) | 0.125 µg/mL (≈ 0.23 µM) | – | 5.81 | – | 4.22 | 0.25 µg/mL (≈ 0.461 µM)
COc1ccc2nccc([C@@H](O)CC[C@@H]3CCN(C4CC(c5c(F)ccc(F)c5F)C4)C[C@@H]3C(=O)O)c2c1 (stereo partly specified) | ≤ 0.0625 µg/mL | 8 µg/mL (≈ 15.1 µM) | 5.81 | 16 µg/mL (≈ 30.3 µM) | 4.45 | ≤ 0.0625 µg/mL
COc1ccc2nccc([C@@H](O)CC[C@@H]3CCN(C4CC(c5ccc(F)c(F)c5F)C4)C[C@@H]3C(=O)O)c2c1 (stereo partly specified) | ≤ 0.0625 µg/mL | > 64 µg/mL | 5.50 | > 64 µg/mL | 3.96 | 0.5 µg/mL (≈ 0.946 µM)
COc1ccc2nccc([C@@H](O)CC[C@@H]3CCN(C4CC(c5cc(Br)ccc5F)C4)C[C@@H]3C(=O)O)c2c1 (stereo partly specified) | ≤ 0.0625 µg/mL | – | 5.50 | – | 4.30 | 0.25 µg/mL (≈ 0.437 µM)
COc1ccc2nccc([C@@H](O)CC[C@@H]3CCN(C4CC(c5ccccc5SC)C4)C[C@@H]3C(=O)O)c2c1 (stereo partly specified) | 0.25 µg/mL (≈ 0.48 µM) | 64 µg/mL (≈ 123 µM) | 5.50 | – | 4.30 | 2 µg/mL (≈ 3.84 µM)
COc1ccc2nccc([C@@H](O)CC[C@@H]3CCN(C4CC(c5ccc(F)cc5F)C4)C[C@@H]3C(=O)O)c2c1 (stereo partly specified) | ≤ 0.0625 µg/mL | 64 µg/mL (≈ 125 µM) | 5.03 | 64 µg/mL (≈ 125 µM) | 4.22 | 0.25 µg/mL (≈ 0.49 µM)
COc1ccc2nccc([C@@H](O)CC[C@@H]3CCN(C4CC(c5cc(SC)ccc5F)C4)C[C@@H]3C(=O)O)c2c1 (stereo partly specified) | 0.25 µg/mL (≈ 0.464 µM) | 64 µg/mL (≈ 119 µM) | 5.50 | – | 4.30 | 2 µg/mL (≈ 3.71 µM)
COc1ccc2nccc([C@@H](O)CC[C@@H]3CCN(C4CC(c5cc(F)ccc5C)C4)C[C@@H]3C(=O)O)c2c1 (stereo partly specified) | 0.125 µg/mL (≈ 0.247 µM) | – | 5.64 | – | 4.35 | 0.5 µg/mL (≈ 0.987 µM)
COc1ccc2nccc([C@@H](O)CC[C@@H]3CCN(C/C=C/c4ccccc4)C[C@@H]3C(=O)O)c2c1 | 0.5 µg/mL (≈ 1.09 µM) | > 64 µg/mL | 5.33 | > 64 µg/mL | < 3.70 | 1 µg/mL (≈ 2.17 µM)
COc1ccc2nccc([C@@H](O)CC[C@@H]3CCN(C4CC(c5c(F)cccc5C(F)(F)F)C4)C[C@@H]3C(=O)O)c2c1 (stereo partly specified) | 0.5 µg/mL (≈ 0.892 µM) | – | 4.72 | – | < 4.00 | 2 µg/mL (≈ 3.57 µM)
COc1ccc2nccc([C@@H](O)CC[C@@H]3CCN(C4CC(c5ccc(-c6ccccc6)cc5)C4)C[C@@H]3C(=O)O)c2c1 (stereo partly specified) | > 64 µg/mL | – | < 4.30 | – | 3.92 | > 64 µg/mL
COc1ccc2nccc([C@@H](O)CC[C@@H]3CCN(C4CC(c5cc(F)c(F)cc5F)C4)C[C@@H]3C(=O)O)c2c1 (stereo partly specified) | ≤ 0.0625 µg/mL | 32 µg/mL (≈ 60.5 µM) | 5.81 | 64 µg/mL (≈ 121 µM) | 4.43 | –

Structure (SMILES) | MIC [1] | MIC [2] | pIC50 [3] | MIC [4] | pIC50 [5] | MIC [6]
COc1ccc2nccc([C@@H](O)CC[C@@H]3CCN(C4CC(c5ccc(Cl)cc5F)C4)C[C@@H]3C(=O)O)c2c1 (stereo partly specified) | – | > 64 µg/mL | 5.20 | > 64 µg/mL | < 4.00 | 1 µg/mL (≈ 1.9 µM)
COc1ccc2nccc([C@@H](O)CC[C@@H]3CCN(C4CC(c5cc(C#N)ccc5F)C4)C[C@@H]3C(=O)O)c2c1 (stereo partly specified) | 2 µg/mL (≈ 3.86 µM) | 64 µg/mL (≈ 124 µM) | 5.03 | – | 3.92 | 8 µg/mL (≈ 15.5 µM)
COc1ccc2nccc([C@@H](O)CC[C@@H]3CCN(C4CC(c5ccccc5OC)C4)C[C@@H]3C(=O)O)c2c1 (stereo partly specified) | 0.5 µg/mL (≈ 0.991 µM) | – | 5.20 | – | < 3.62 | 1 µg/mL (≈ 1.98 µM)
COc1ccc2nccc([C@@H](O)CC[C@@H]3CCN(C4CC(c5cccc(OC)c5F)C4)C[C@@H]3C(=O)O)c2c1 (stereo partly specified) | – | > 64 µg/mL | 4.72 | – | < 3.70 | 64 µg/mL (≈ 122 µM)
COc1ccc2nccc([C@@H](O)CC[C@@H]3CCN(C4CC(c5c(F)cccc5Cl)C4)C[C@@H]3C(=O)O)c2c1 (stereo partly specified) | – | 64 µg/mL (≈ 121 µM) | 5.33 | 32 µg/mL (≈ 60.7 µM) | 4.22 | –
COc1ccc(F)c(C2CC(N3CC[C@@H](CC[C@H](O)c4ccnc5ccc(OC)cc45)[C@@H](C(=O)O)C3)C2)c1 (stereo partly specified) | – | > 64 µg/mL | 4.30 | > 64 µg/mL | < 3.92 | 4 µg/mL (≈ 7.65 µM)
COc1ccc2nccc([C@@H](O)CC[C@@H]3CCN(C4CC(c5cccc(C(F)(F)F)c5F)C4)C[C@@H]3C(=O)O)c2c1 (stereo partly specified) | – | – | 5.20 | > 64 µg/mL | 3.70 | 0.5 µg/mL (≈ 0.892 µM)
COc1ccc2nccc([C@@H](O)CC[C@@H]3CCN(C4CC(c5ccnc(C)n5)C4)C[C@@H]3C(=O)O)c2c1 (stereo partly specified) | > 64 µg/mL | – | 4.30 | – | < 3.92 | > 64 µg/mL
COc1ccc2nccc([C@@H](O)CC[C@@H]3CCN(C4CC(c5ccncn5)C4)C[C@@H]3C(=O)O)c2c1 (stereo partly specified) | 64 µg/mL (≈ 134 µM) | – | 4.72 | – | 3.92 | > 64 µg/mL
COc1ccc2nccc([C@@H](O)CC[C@@H]3CCN(C4CC(c5ccc(Br)cc5F)C4)C[C@@H]3C(=O)O)c2c1 (stereo partly specified) | – | > 64 µg/mL | 5.20 | > 64 µg/mL | < 3.70 | 8 µg/mL (≈ 14 µM)
COc1ccc2nccc([C@@H](O)CC[C@@H]3CCN(C4CC(c5cc(C)ccc5F)C4)C[C@@H]3C(=O)O)c2c1 (stereo partly specified) | – | > 64 µg/mL | 5.81 | > 64 µg/mL | 4.12 | –
COc1ccc2nccc([C@@H](O)CC[C@@H]3CCN(C4CC(c5cccc(Cl)c5F)C4)C[C@@H]3C(=O)O)c2c1 (stereo partly specified) | – | > 64 µg/mL | 5.62 | > 64 µg/mL | 4.12 | ≤ 0.0625 µg/mL
COc1ccc2nccc([C@@H](O)CC[C@@H]3CCN(C4CC(c5cc(C(F)(F)F)ccc5F)C4)C[C@@H]3C(=O)O)c2c1 (stereo partly specified) | – | – | 4.60 | – | < 4.00 | 4 µg/mL (≈ 7.14 µM)
COc1ccc2nccc([C@@H](O)CC[C@@H]3CCN(C4CC(c5c(F)cccc5OC)C4)C[C@@H]3C(=O)O)c2c1 (stereo partly specified) | 0.25 µg/mL (≈ 0.478 µM) | – | 4.90 | – | 4.00 | 2 µg/mL (≈ 3.83 µM)
COc1ccc(C2CC(N3CC[C@@H](CC[C@H](O)c4ccnc5ccc(OC)cc45)[C@@H](C(=O)O)C3)C2)c(F)c1 (stereo partly specified) | – | > 64 µg/mL | 4.30 | – | < 3.62 | 64 µg/mL (≈ 122 µM)
COc1ccc2nccc([C@@H](O)CC[C@@H]3CCN(C4CC(c5ncc(C)o5)C4)C[C@@H]3C(=O)O)c2c1 (stereo partly specified) | 2 µg/mL (≈ 4.17 µM) | – | 5.20 | – | < 4.00 | 8 µg/mL (≈ 16.7 µM)
COc1ccc2nccc([C@@H](O)CC[C@@H]3CCN(C4CC(c5ccc(C#N)cc5)C4)C[C@@H]3C(=O)O)c2c1 (stereo partly specified) | > 64 µg/mL | – | < 4.30 | – | 3.62 | > 64 µg/mL
COc1ccc2nccc([C@@H](O)CC[C@@H]3CCN(C4CC(c5ccc(F)c(C#N)c5)C4)C[C@@H]3C(=O)O)c2c1 (stereo partly specified) | – | – | 5.50 | – | < 3.70 | > 64 µg/mL
COc1ccc2nccc([C@@H](O)CC[C@@H]3CCN(C4CC(c5ccn(C)n5)C4)C[C@@H]3C(=O)O)c2c1 (stereo partly specified) | > 64 µg/mL | – | 4.72 | – | < 3.92 | > 64 µg/mL
COc1ccc2nccc([C@@H](O)CC[C@@H]3CCN(C4CC(c5ccn[nH]5)C4)C[C@@H]3C(=O)O)c2c1 (stereo partly specified) | > 64 µg/mL | – | < 4.60 | – | < 3.92 | > 64 µg/mL
COc1ccc2nccc([C@@H](O)CC[C@@H]3CCN(C4CC(c5ccc(C(F)(F)F)cc5F)C4)C[C@@H]3C(=O)O)c2c1 (stereo partly specified) | – | > 64 µg/mL | 5.20 | – | < 3.70 | 4 µg/mL (≈ 7.14 µM)
COc1ccc2nccc([C@@H](O)CC[C@@H]3CCN(C4CC(c5cccc(C#N)c5)C4)C[C@@H]3C(=O)O)c2c1 (stereo partly specified) | – | – | 5.03 | – | < 3.70 | 16 µg/mL (≈ 32 µM)

— ChEMBL document CHEMBL2380208, “Novel quinoline derivatives as inhibitors of bacterial DNA gyrase and topoisomerase IV” (Bioorg Med Chem Lett, 2013)
